These results are taken from the C3SDB collision cross section collection.

Each structure is given as a SMILES string.

The conditions of data set [1]: instrument: TW, calibrated with polyalanine.
The conditions of data set [2]: instrument: DT, single field, calibrated with Agilent tune mix (Agilent).
For data set [3] the following is noted: instrument: DT, stepped-field.
The conditions of data set [4]: instrument: DT, stepped-field. This is another data set of the same source.

Take `COc1cc2c(c3oc(=O)c4c(c13)CCOC4=O)[C@@H]1CCO[C@@H]1O2` [Aflatoxin G2]: the “collision cross section (N2)” value in data set [1] ([M+H]+) was found to be 166 Å²; in data set [1] ([M+K]+) it was 181 Å²; in data set [1] ([M+Na]+) it was 176.4 Å².

As to `CN1CC(=O)N=C1N` [Creatinine], the “collision cross section (N2)” value worked out at 123.4 Å² in data set [2] ([M+H]+); 116.68 Å² in data set [2] ([M-H]-); 123.87 Å² in data set [3] ([M+H]+); 132.99 Å² in data set [3] ([M+Na]+); 120.7 Å² in data set [3] ([M-H]-); 123.93 Å² in data set [4] ([M+H]+). In data set [4] ([M+Na]+), the “collision cross section (N2)” value came out at 133.41 Å².

`CC(=O)OC[C@]12CCC(C)=C[C@H]1O[C@@H]1[C@H](O)[C@@H](OC(C)=O)[C@@]2(C)[C@@]12CO2` [Diacetoxyscirpenol]: in data set [1] ([M+NH4]+), the “collision cross section (N2)” value amounted to 192 Å².

Regarding `CC[C@H](C)[C@H]1C(=O)O[C@H](C(C)C)C(=O)N(C)[C@@H](C(C)C)C(=O)O[C@H](C(C)C)C(=O)N(C)[C@@H](C(C)C)C(=O)O[C@H](C(C)C)C(=O)N1C` [Enniatin B1], the “collision cross section (N2)” value in data set [1] ([M+H]+) was 246.4 Å²; in data set [1] ([M+K]+), 254.7 Å²; in data set [1] ([M+NH4]+), 253 Å²; in data set [1] ([M+Na]+) it was 253.4 Å².

Turning to `CC(=O)O[C@@H]1[C@@H](O)[C@H]2O[C@@H]3C=C(C)C(=O)[C@@H](O)[C@]3(CO)[C@]1(C)[C@]21CO1` [Fusarenon X], the “collision cross section (N2)” value in data set [1] ([M+H3C2O2]-) came out at 195 Å².

In the case of `C[C@]12CCC(=O)C=C1CC[C@@H]1[C@@H]2[C@@H](O)C[C@@]2(C)[C@H]1CC[C@]2(O)C(=O)CO` [Hydrocortisone], the “collision cross section (N2)” value in data set [2] ([M-H2O-H]-) is on record as 182.99 Å²; in data set [3] ([M+H]+) it was 189.27 Å²; in data set [3] ([M+Na]+), 213.72 Å².

For `NCCCC[C@H](N)C(=O)O` [L-Lysine], the entries for the “collision cross section (N2)” value in data set [2] ([M+H]+), in data set [3] ([M+H]+) and in data set [4] ([M+H]+) were 130.7 Å², 131.62 Å² and 131.8 Å², respectively.

As for `CC(=O)OC[C@]12C[C@H](O)C(C)=C[C@H]1O[C@@H]1[C@H](O)[C@@H](OC(C)=O)[C@@]2(C)[C@]12CO2` [Neosolaniol], the “collision cross section (N2)” value in data set [1] ([M+NH4]+) turned out to be 198 Å².

Take `CCC(C)C(NC(=O)C(Cc1ccc(O)cc1)NC(=O)C1CCCN1C(=O)C(CCCN=C(N)N)NC(=O)C(CCCN=C(N)N)NC(=O)C1CCCN1C(=O)C(CCCCN)NC(=O)C(CC(N)=O)NC(=O)C(CCC(=O)O)NC(=O)C(Cc1ccc(O)cc1)NC(=O)C(CC(C)C)NC(=O)C1CCC(=O)N1)C(=O)NC(CC(C)C)C(=O)O` (stereo not drawn) [Neurotensin]: the “collision cross section (N2)” value in data set [3] ([M+2H]2+) is recorded as 434.32 Å²; in data set [3] ([M+3H]3+), 525.02 Å².

With `CCCCCCCCCCCCCCCC(=O)O` [Palmitic acid], the “collision cross section (N2)” value in data set [2] ([M+Na]+) worked out at 195 Å²; in data set [2] ([M-H]-) it was 167.52 Å²; in data set [3] ([M-H]-), 169.12 Å².

On to `C=C(C)[C@H]1O[C@H]2CC[C@@]3(C)[C@@](O)(CC[C@H]4[C@@H]5OC(C)(C)[C@H]6C[C@@H]7C(=C)Cc8c(Cl)cc9[nH]c(c5c9c8[C@@]76O)[C@@]43C)[C@]23O[C@@H]3[C@H]1O` [Penitrem A], for which the “collision cross section (N2)” value in data set [1] ([M+H]+) was determined as 253 Å².

`CC(=O)OC[C@]12C[C@H](OC(=O)CC(C)C)C(C)=C[C@H]1O[C@@H]1[C@H](O)[C@@H](OC(C)=O)[C@@]2(C)[C@]12CO2` [T-2 toxin]: in data set [1] ([M+NH4]+), the “collision cross section (N2)” value was determined as 214 Å².

With `CC(C)C[C@@H]1NC(=O)[C@H](C)N(C)C(=O)CNC(=O)/C(=C/c2ccccc2)N(C)C1=O` [Tentoxin], the “collision cross section (N2)” value in data set [1] ([M+H]+) was found to be 202 Å².

In the case of `CC[C@H](C)[C@@H]1NC(=O)C(C(C)=O)=C1O` [Tenuazonic acid], in data set [1] ([M+H]+), the “collision cross section (N2)” value was found to be 135 Å².

For `C[C@H]1CCCC(=O)CCC/C=C/c2cc(O)cc(O)c2C(=O)O1` [Zearalenone], the “collision cross section (N2)” value in data set [1] ([M-H]-) is listed as 170 Å².
